Where two headings read alike, the source gives them in different places.
Tests used:
Rat [1] = test: Maximal electroshock seizure (MES) test, rat (po); format: in vivo
Method: (§2) The maximal electroconvulsive shock (MES) test is regarded as a standard screen for anticonvulsant activity in terms of inhibition of seizure spread in generalized tonic-clonic seizures.
(§3) Groups of at least 8 male albino CF No. 1 mice or male albino Sprague-Dawley rats are treated with 10 mL/kg i.p. or 4 mL/kg p.o. of the test compound solution, respectively. The electrical stimulus in the MES test is 50 mA at 60 Hz for mice and 150 mA at 60 Hz for rats, both delivered for 0.2 sec. Abolition of the hind leg tonic extensor component of the seizure is used as the endpoint.

[2] = Neurological toxicity, rotorod test, mice (ip); format: in vivo; conditions: male, CF No 1, mouse, in vivo, read-out: Mice (ip) Tox, TD50
Method: (§1) Tests are conducted in groups of at least 8 mice or rats to determine the intrinsic neurotoxicity (neuromuscular impairment) after administration of the test compound by the route of administration to be used in the pharmacology studies. Neurotoxicity is determined in male CF No 1 mice by the rotarod procedure. Inability of the mouse to maintain its equilibrium in 3 trials during 1 min on this rotating rod (6 rpm) is used as an indication of such impairment. In Sprague-Dawley rats, minimal motor impairment (MMI) is determined by overt evidence of ataxia, abnormal gait, and stance.

Mice [3] = test: Maximal electroshock seizure (MES) test, mice (ip);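 also: male albino CF No. 1 mice dosed ip, MES stimulus 50 mA at 60 Hz lasting 0.2 s, efficacy endpoint is loss of hind leg tonic extension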
Method: as §2, §3

Mice [4] = test: Formalin test (mice, ip); format: in vivo; conditions: for Formalin Test (mice, ip) Inflammatory (%): duration of licking as percent of control, late phase
Method: Compounds of the present invention were active in treating pain in a formalin test carried out in accordance with standard techniques, as described in S. Hunskaar et al., J. Neurosci. Methods 14: 69-76 (1985). Briefly, 0.5% formalin is injected into the mouse hind paw to elicit a bi-phasic licking response, where the first acute phase is thought to correspond to the direct stimulation of peripheral fibers and the second (inflammatory) phase is caused by the release of inflammatory mediators.
Spinal/supraspinal plasticity of nociception is considered as a molecular basis for neuropathic pain particularly during the second (late) phase of the test (Dubuisson & Dennis, 1977; Coderre et al., 1990; Coderre & Melzack, 1992), during which most clinically used drugs against neuropathic pain are active.

Rats = test: Hippocampal kindling test, rats (ip); format: in vivo; conditions: for ED50: Rattus norvegicus, ip, read-out: Hippocampal Kindled Rats (ip) ED50 (interval)
Method: The kindling model provides a tool to predict a test compound's activity in complex partial seizures.
Male albino Sprague-Dawley rats (n=8) are kindled to a Stage 5 behavioral seizure. They are treated with an appropriate i.p. dose of the test compound after a 1-week, stimulus-free period. The test compound is evaluated for its effect on kindled motor seizures (seizures scores of 4 and 5), limbic behavior seizures (seizure scores between 1 and 3) and after-discharge duration. After 15 min, each rat is stimulated every 30 min for 3-4 h. Following each stimulation, individual seizure scores and after-discharge duration are recorded. The group mean and standard error of the mean (SEM) are calculated for each parameter.

Mice [5] = test: Neurological toxicity, rotorod test, mice (ip); format: in vivo; conditions: Table b500, rotorod test
Method: as §1

Rat [6] = test: Behavioral toxicity, rat (po); format: in vivo; conditions: Table b500, orally, behavioral toxicity
Method: as §1

Rat [7] = conditions: cited from earlier work
Mice [8] = conditions: cited from earlier work
[9] = Table b502, protective index (TD50/ED50)

COC[C@@H](NC(C)=O)C(=O)NCc1ccc(OCc2ccccc2F)cc1 [(R)-21, (R)—N-4-(2-Fluorobenzyloxy)benzyl 2-Acetamido-3-methoxypropionamide]
Rat (po) PI (Rat [1]; [9]): >45 | TD50 ([2]; rotorod test): 37 mg/kg | melting point: 173 to 174 °C | Mice (ip) MES, ED50 (Mice [3]; Table b502, intraperitoneally): 6.7 [0.25] (4.8-9.1) mg/kg

COC[C@@H](NC(C)=O)C(=O)NCc1ccc(OCc2ccc(F)cc2)cc1 [(R)-22, (R)—N-4-(4-Fluorobenzyloxy)benzyl 2-Acetamido-3-methoxypropionamide]
Rat (po) PI (Rat [1]; [9]): >86 | TD50 ([2]; rotorod test): 30 to 100 mg/kg | melting point: 166 to 167 °C | Mice (ip) MES, ED50 (Mice [3]; Table b502, intraperitoneally): >10, <30 [0.5] mg/kg

COC[C@@H](NC(C)=O)C(=O)NCc1ccccc1 [(R)-B, (2R)-2-(acetylamino)-N-benzyl-3-methoxypropanamide, reference compound]
Formalin Test (mice, ip) Inflammatory (%) (Mice [4]; dose 5 mg/kg): 31 [<0.01] % | ED50 (Rats): 14 mg/kg

COC[C@H](NC(C)=O)C(=O)NCc1ccc(OCc2cccc(F)c2)cc1 [(S)-3, (S)-2-Acetamido-N-(4-(3-fluorobenzyloxy)benzyl)-3-methoxypropanamide]
Mice (ip) MES, ED50 (Mice [3]; ip): >300 [0.5]

COC[C@H](NC(C)=O)C(=O)NCc1ccc(N=[N+]=[N-])cc1 [(S)-5, (S)—N-(4-Azidobenzyl)-2-acetamido-3-methoxypropanamide]
TD50 [2]: > 300 mg/kg | melting point: 149 to 150 °C

CC(=O)N[C@@H](C)C(=O)NCc1ccc(OCc2cccc(F)c2)cc1 [(S)-6, (S)—N-4-(3-Fluorobenzyloxy)benzyl 2-Acetamidopropionamide]
Mice (ip) Tox, TD50 (Mice [5]): >300 [0.5] mg/kg | Rat (po) Tox, TD50 (Rat [6]): >30 [0.25 to mg/kg | melting point: 153 to 154 °C

COC[C@H](NC(C)=O)C(=O)NCc1ccc(OCc2cccc(F)c2)cc1 [(S)-10, (S)-2-Acetamido-N-(4-(3-fluorobenzyloxy)benzyl)-3-methoxypropanamide]
Mice (ip) Tox, TD50 (Mice [5]): >300 mg/kg | Mice (ip) Mes, ED50 (Mice [3]; Table b500, intraperitoneally): >300 mg/kg

CC(=O)NC(C(=O)NCc1ccccc1)c1ccccc1 (stereo not shown) [C, reference compound]
MES ED50 (Mice [3]; ip): 32 mg/kg

CC(=O)NC(C(=O)NCc1ccc(C)cc1)c1ccccc1 (stereo not shown) [D, reference compound]
MES ED50 (Mice [3]; ip): ~300 mg/kg

COC[C@@H](NC(C)=O)C(=O)NCc1ccc([N+](=O)[O-])cc1 [F, reference compound]
MES ED50 (Mice [3]; ip): >100, <300 mg/kg

COC[C@@H](NC(C)=O)C(=O)NCc1ccccc1 [H, reference compound]
Formalin Assay Acute (%) (Mice [4]; mice, ip, dose 16 (mg)): 100% | Formalin Assay Inflam. (%) (Mice [4]; mice, ip, dose 16 (mg)): 44%

CC(=O)NCC(=O)NCc1ccc(OCc2cccc(F)c2)cc1 [compound 5, N-4-(3-Fluorobenzyloxy)benzyl 2-Acetamidoacetamide]
Rat (po) PI (Rat [1]; Table b500, protective index (TD50/ED50)): >16 | Rat (po) Tox, TD50 (Rat [6]): >500 [1.0] mg/kg

CCC1(c2ccccc2)C(=O)NC(=O)NC1=O [phenobarbital]
ED50 (Rats): 20 mg/kg

O=C1NC(=O)C(c2ccccc2)(c2ccccc2)N1 [phenytoin]
Formalin Test (mice, ip) Inflammatory (%) (Mice [4]; dose 6 mg/kg): 21 (5) % | ED50 (Rats; rats): 34 mg/kg | Preliminary Hippocampal Kindling Test (Rats) Seizure Score, Drug (Rats; rats, after drug (pre-drug score in neighbouring column)): 3 | Rat (po) MES, ED50 (Rat [7]; Ref 16, 32): 30 [4.0] mg/kg | Rat (po) PI (Rat [7]; Ref 32): >100 | Rat (po) MES, ED50 (Rat [7]; reference drugs marked h): 30 [4] | Rat (po) PI (Rat [7]; reference drugs marked h): >100

CCCC(CCC)C(=O)O [valproate]
Formalin Test (mice, ip) Inflammatory (%) (Mice [4]; dose 300 mg/kg): 67 (20) % | ED50 (Rats; rats): 214 mg/kg | Mice (ip) Mes, ED50 (Mice [8]; Ref 30, 16, 32): 270 [0.25] mg/kg | Mice (ip) PI (Mice [8]; Ref 32): 1.6 | Mice (ip) MES, ED50 (Mice [8]; reference drugs marked h): 270 [0.25] | Mice (ip) PI (Mice [8]; reference drugs marked h): 1.6 | Rat (po) MES, ED50 (Rat [7]; Ref 16, 32): 490 [0.5] mg/kg | Rat (po) PI (Rat [7]; Ref 32): 0.6 | Rat (po) MES, ED50 (Rat [7]; reference drugs marked h): 490 [0.5] | Rat (po) PI (Rat [7]; reference drugs marked h): 0.6

— patent US8829033B2, “N-benzylamide substituted derivatives of 2-(acylamido)acetic acid and 2-(acylamido)propionic acids: potent neurological agents” (The University of North Carolina at Chapel Hill, priority 2009, dated 2014)
